# From patent US7951775B2, “Methods and pharmaceutical compositions for GnRH-I and GnRH-II modulation of T-cell activity, adhesion, migration and extravasation” (priority 2001, dated 2011)
# “Also recorded” adds a separate entry of the source.
# What was measured:
# [1] = tested on: normal human T-cells; assay: T-cell adhesion to laminin assay; type: cell-based; details: 10 nM, 48 hours pretreatment; PMA 10 ng/ml positive control; four donors
# Description: Adhesion of T-cells to laminin was assayed as follows: normal human T-cells, purified from a fresh blood sample, were suspended (1×10^6 cells/ml) in rest medium (RPMI-1640, supplemented with 10% fetal calf serum (Sigma Chemical Co., St. Louis, Mo.), 1% antibiotics, 1% glutamine (Biological Industries, Beit Haemek, Israel) and 0.4% fungizone (GibcoBRL, Life Technologies Ltd., Paisley, Scotland)). The cells were then supplemented with 10 nM GnRH-I or GnRH-II and incubated for variable periods of time (0.5-72 hours, 37° C., 7.5% CO2 humidified incubator). Following incubation the cells were washed and resuspended in adhesion medium (RPMI-1640 supplemented with 0.1% bovine serum albumin (BSA, Sigma)). […] The optical density (OD) was measured at 405 nm in a standard ELISA reader. […]
# To study the functional consequences of the increase in the 67 kDa LR expression level following GnRH stimulation, the ability of GnRH-treated normal human T-cells to adhere to laminin was assessed. […] In parallel, increasing numbers of untreated cells were seeded on separate plates, in order to establish a standard curve, enabling the relation of results obtained in units of fluorescence intensity (OD) to actual number of cells.
# [2] = tested on: EL-4 T-lymphoma cells; assay: Homing of GnRH-treated EL-4 T-lymphoma in vivo into specific organs of normal syngeneic mice; parameters: species or system mouse; details: EL-4 cells treated ex vivo 10 nM; for mean number of EL-4 labeled cells detected in the bone marrow: 48 h, C57BL/6 recipients n=5, untreated 149825±8424; for increase in entry into bone marrow over untreated control cells: C57BL/6 recipients; for entry of EL-4 cells into the spleen / level of EL-4 cells entry into thymus, kidney and liver, or their number in the plasma: vs untreated cells
# Description: Mouse EL-4 T-lymphoma cells were incubated without any further treatment or with either GnRH-I or GnRH-II (10 nM) for […] (37° C., 7.5% CO2 in a humidified incubator) and then washed, counted, and fluorescently labeled with BCECF AM (30 minutes 37° C., 7.5% CO2 humidified incubator), as described above.
# Normal syngeneic C57BL/6 female recipient mice were then subjected to 300 rad total body irradiation, and several hours later inoculated I.P with 5×10^6 cells/mouse of either untreated or GnRH-treated EL-4 lymphoma cells. In parallel, samples from the treated and GnRH inoculated EL-4 cells were tested by double immunofluorescence (as described above) for the level of their 67 kD LR and TCRαβ. After […], the spleen, thymus, kidney, liver, bone marrow, and a fixed volume of blood were removed from the recipient mice into tubes containing 10 ml PBS, and cell suspensions were prepared from each organ of each individual mouse. Following further dilution in PBS for the kidney (1:3) and liver (1:10), the number of fluorescent cells, as well as the total number of cells in each tube, were counted by flow cytometry (FACSORT).
# To assess whether exposure of EL-4 T-lymphoma cells to GnRH modulated their immigration and organ invasion profiles in vivo, the EL-4 cells were treated ex vivo with GnRH-I or GnRH-II (10 nM, 48 h), loaded with a fluorescent dye, and inoculated into normal syngeneic C57BL/6 (H-2b) recipient mice. After 48 hours, the spleen, thymus, kidney, liver, bone marrow, and a fixed volume of blood were removed, individual cells suspensions were prepared and the number of labeled immigrating cells, as well as the total number of cells present in each organ (labeled+non-labeled) was counted by flow cytometry.
# [3] = tested on: normal human T-cells; assay: In-vitro chemotactic migration assay towards SDF-1 through laminin-coated filters; type: cell-based; details: 10 nM, at least 18 h pretreatment; four independent experiments
# Description: Normal human T-cells (1×10^6 cells/well in rest medium) were pretreated with GnRH-I or GnRH-II (10 nM, >18 hours, 37° C., 7.5% CO2 humidified incubator), washed, resuspended in adhesion medium and fluorescently labeled (50 μg/ml, 30 minutes, 37° C., 7.5% CO2 humidified incubator) with 2′,7′-bis-(2-carboxyethyl)-5-(and-6)-carboxyfluorescein acetoxymethyl (BCECF AM, Molecular Probes, Eugene, Oreg.). The cells were then washed, resuspended in adhesion medium, and added to the upper chambers (2×10^5 cells per 100 μl well) of a 24-well chemotaxis microchamber plate (Corning Inc., Corning, N.Y.). The two compartments of the microchambers were separated by polycarbonate filters ([…] pore size) pre-coated with laminin ([…], about 1.5 hour, 37° C.). […]
# Adhesion of T-cells to components of the basement membrane is a crucial step in the series of events that eventually enable T-cells to migrate and extravasate from the blood stream to specific tissues. […] To determine whether GnRH can induce T-cells to migrate towards a chemoattractant, we made use of the Boyden chamber migration assay and scored the number of fluorescence-labeled normal human T-cells which migrated from a medium-containing upper chamber to a chemoattractant-containing lower chamber. […]
Molecule,T-cell adhesion to laminin [1],mean number of EL-4 labeled cells detected in the bone marrow [2],increase in entry into bone marrow over untreated control cells [2],entry of EL-4 cells into the spleen [2],"level of EL-4 cells entry into thymus, kidney and liver, or their number in the plasma [2]",migration of T-cells towards chemoattractant SDF-1 [3]
pGlu-His-Trp-Ser-Tyr-Gly-Leu-Arg-Pro-Gly-NH2 [GnRH-I],as efficiently as PMA; also recorded: as markedly as does PMA,321400±15165,115%,significant enhanced entry,did not affect,directly increase the migration potential; also recorded: significantly augments
"GnRH-II: unique ten amino acid long neuropeptide, 70% homologous in peptide structure to GnRH-I, encoded by its own gene (peptide) peptide: QHWSHGWYPGGKRALSSAQDPQNALRPPGRALDTAAGSPVQTAHGLPSDALAPLDDSMPWEGRTTAQWSLHRKRHLARTLLTAAREPRPAPPSSNKV",as efficiently as PMA; also recorded: as markedly as does PMA,219280±14003,46%,significant enhanced entry,did not affect,directly increase the migration potential; also recorded: significantly augments
